Results taken from the NIST ThermoML archive (doi:10.1016/j.jct.2010.08.021).

Assay: mn = molality of the nth substance listed, in mol/kg
Settings: 101 kPa, Liquid; for speed of sound: Sing-around technique in a fixed-path interferometer; for mass density: Vibrating tube method

N[C@@H](CO)C(=O)O [L-serine] + O
Settings | mass density [kg/m3] | speed of sound [m/s]
288.15 K, m1 = 0.0192 | 999.979 | 1467.9
288.15 K, m1 = 0.028 | 1000.38 | 1468.5
288.15 K, m1 = 0.037 | 1000.78 | 1468.9
288.15 K, m1 = 0.043 | 1001.05 | 1469.4
288.15 K, m1 = 0.0486 | 1001.3 | 1469.8
288.15 K, m1 = 0.057 | 1001.68 | 1470.3
288.15 K, m1 = 0.0657 | 1002.07 | 1470.9
288.15 K, m1 = 0.0804 | 1002.73 | 1471.8
288.15 K, m1 = 0.0942 | 1003.34 | 1472.7
288.15 K, m1 = 0.1156 | 1004.3 | 1474.1
288.15 K, m1 = 0.1329 | 1005.07 | 1475.2
288.15 K, m1 = 0.1535 | 1005.99 | 1476.6
288.15 K, m1 = 0.1642 | 1006.46 | 1477.3
288.15 K, m1 = 0.1789 | 1007.11 | 1478.3
288.15 K, m1 = 0.1944 | 1007.8 | 1479.2
293.15 K, m1 = 0.0192 | 999.07 | 1484
293.15 K, m1 = 0.028 | 999.466 | 1484.5
293.15 K, m1 = 0.037 | 999.867 | 1485
293.15 K, m1 = 0.043 | 1000.13 | 1485.4
293.15 K, m1 = 0.0486 | 1000.38 | 1485.8
293.15 K, m1 = 0.057 | 1000.75 | 1486.3
293.15 K, m1 = 0.0657 | 1001.14 | 1486.8
293.15 K, m1 = 0.0804 | 1001.79 | 1487.8
293.15 K, m1 = 0.0942 | 1002.4 | 1488.7
293.15 K, m1 = 0.1156 | 1003.35 | 1490
293.15 K, m1 = 0.1329 | 1004.11 | 1491.1
293.15 K, m1 = 0.1535 | 1005.02 | 1492.4
293.15 K, m1 = 0.1642 | 1005.49 | 1493.1
293.15 K, m1 = 0.1789 | 1006.13 | 1494
293.15 K, m1 = 0.1944 | 1006.81 | 1495
298.15 K, m1 = 0.0192 | 997.9 | 1498.2
298.15 K, m1 = 0.028 | 998.291 | 1498.8
298.15 K, m1 = 0.037 | 998.691 | 1499.2
298.15 K, m1 = 0.043 | 998.951 | 1499.6
298.15 K, m1 = 0.0486 | 999.198 | 1500
298.15 K, m1 = 0.057 | 999.564 | 1500.5
298.15 K, m1 = 0.0657 | 999.952 | 1501
298.15 K, m1 = 0.0804 | 1000.6 | 1501.9
298.15 K, m1 = 0.0942 | 1001.2 | 1502.7
298.15 K, m1 = 0.1156 | 1002.14 | 1504
298.15 K, m1 = 0.1329 | 1002.89 | 1505.1
298.15 K, m1 = 0.1535 | 1003.79 | 1506.4
298.15 K, m1 = 0.1642 | 1004.26 | 1507
298.15 K, m1 = 0.1789 | 1004.89 | 1507.9
298.15 K, m1 = 0.1944 | 1005.57 | 1508.8
303.15 K, m1 = 0.0192 | 996.495 | 1510.5
303.15 K, m1 = 0.028 | 996.883 | 1511.1
303.15 K, m1 = 0.037 | 997.277 | 1511.5
303.15 K, m1 = 0.043 | 997.539 | 1511.9
303.15 K, m1 = 0.0486 | 997.781 | 1512.3
303.15 K, m1 = 0.057 | 998.143 | 1512.8
303.15 K, m1 = 0.0657 | 998.53 | 1513.2
303.15 K, m1 = 0.0804 | 999.17 | 1514.1
303.15 K, m1 = 0.0942 | 999.763 | 1514.9
303.15 K, m1 = 0.1156 | 1000.7 | 1516.2
303.15 K, m1 = 0.1329 | 1001.45 | 1517.2
303.15 K, m1 = 0.1535 | 1002.34 | 1518.5
303.15 K, m1 = 0.1642 | 1002.8 | 1519.1
303.15 K, m1 = 0.1789 | 1003.43 | 1520
303.15 K, m1 = 0.1944 | 1004.1 | 1520.8
308.15 K, m1 = 0.0192 | 994.871 | 1521.2
308.15 K, m1 = 0.028 | 995.258 | 1521.7
308.15 K, m1 = 0.037 | 995.648 | 1522.1
308.15 K, m1 = 0.043 | 995.908 | 1522.5
308.15 K, m1 = 0.0486 | 996.152 | 1522.9
308.15 K, m1 = 0.057 | 996.512 | 1523.4
308.15 K, m1 = 0.0657 | 996.896 | 1523.8
308.15 K, m1 = 0.0804 | 997.529 | 1524.7
308.15 K, m1 = 0.0942 | 998.119 | 1525.5
308.15 K, m1 = 0.1156 | 999.047 | 1526.7
308.15 K, m1 = 0.1329 | 999.793 | 1527.7
308.15 K, m1 = 0.1535 | 1000.68 | 1528.9
308.15 K, m1 = 0.1642 | 1001.14 | 1529.5
308.15 K, m1 = 0.1789 | 1001.76 | 1530.3
308.15 K, m1 = 0.1944 | 1002.43 | 1531.2
313.15 K, m1 = 0.0192 | 993.05 | 1530.3
313.15 K, m1 = 0.028 | 993.434 | 1530.8
313.15 K, m1 = 0.037 | 993.821 | 1531.2
313.15 K, m1 = 0.043 | 994.079 | 1531.6
313.15 K, m1 = 0.0486 | 994.322 | 1532
313.15 K, m1 = 0.057 | 994.68 | 1532.4
313.15 K, m1 = 0.0657 | 995.061 | 1532.8
313.15 K, m1 = 0.0804 | 995.691 | 1533.7
313.15 K, m1 = 0.0942 | 996.279 | 1534.4
313.15 K, m1 = 0.1156 | 997.203 | 1535.7
313.15 K, m1 = 0.1329 | 997.943 | 1536.6
313.15 K, m1 = 0.1535 | 998.827 | 1537.8
313.15 K, m1 = 0.1642 | 999.283 | 1538.4
313.15 K, m1 = 0.1789 | 999.905 | 1539.2
313.15 K, m1 = 0.1944 | 1000.57 | 1540
